Experimental data as given in paper PMC2228116 (British Journal of Cancer, 1997).
Several values for one entry are separate records, joined by “and”; a condition that tells them apart may be missing. Equal entries are not always repeated.

Legend:
[1] = Control experiments without liver: chemical transformation in perfusate (19F-NMR); format: physicochemical
[2] = system: isolated perfused rat liver; experiment: Liver viability in IPRL experiments (LDH activity in perfusate, bile flow); conditions: Table 1, text
Method: British Joumal of Cancer (1997) 76(9), 1170-1180 ? […] Livers were perfused with 5-FU alone at a dose of 15 mg kg-' body weight or with 5-FU + GW776 at doses of 15 mg 5-FU kg-' body weight and 0.5 mg GW776 kg-' body weight injected 1 h before 5-FU. […] Keywords: 5-fluorouracil; 5-ethynyluracil (GW776); 19F nuclear magnetic resonance; modulation of 5-fluorouracil metabolism; fluoroacetate; 2-fluoro-3-hydroxypropionic acid; isolated perfused rat liver 5-Fluorouracil (5-FU) is one of the most commonly used anti- cancer agents for treatment of solid tumours. Common clinical adverse reactions include myelosuppression, diarrhoea, vomiting and mucositis. […] 5-Ethynyluracil (GW776) is a potent inactivator of the catabolic pathway of 5-FU acting on dihydropyrimidine dehydrogenase (DPD), the enzyme that converts 5-FU into its first catabolite, 5,6-dihydro-5-fluorouracil (FUH2), thereby preserving 5-FU from its rapid and extensive catabolism (Porter et al, 1992; Baccanari et al, 1993; Spector et al, 1993). […] MATERIALS AND METHODS IPRL experiments Livers from male Wistar rats (Iffa Credo, Lyon, France) were isolated and perfused with recirculation of the perfusion medium according to the design originally described by Brauer et al (1951) and modified by Sabouraud et al (1993). […]

[3] = design: method as in Khor et al, 1996; conditions: humans, without GW776; ref Khor et al, 1996; cited from earlier work
[4] = system: isolated perfused rat liver; experiment: in vitro
Method: (§1) British Joumal of Cancer (1997) 76(9), 1170-1180 ? […] Livers were perfused with 5-FU alone at a dose of 15 mg kg-' body weight or with 5-FU + GW776 at doses of 15 mg 5-FU kg-' body weight and 0.5 mg GW776 kg-' body weight injected 1 h before 5-FU. […] Keywords: 5-fluorouracil; 5-ethynyluracil (GW776); 19F nuclear magnetic resonance; modulation of 5-fluorouracil metabolism; fluoroacetate; 2-fluoro-3-hydroxypropionic acid; isolated perfused rat liver 5-Fluorouracil (5-FU) is one of the most commonly used anti- cancer agents for treatment of solid tumours. Common clinical adverse reactions include myelosuppression, diarrhoea, vomiting and mucositis. […] 5-Ethynyluracil (GW776) is a potent inactivator of the catabolic pathway of 5-FU acting on dihydropyrimidine dehydrogenase (DPD), the enzyme that converts 5-FU into its first catabolite, 5,6-dihydro-5-fluorouracil (FUH2), thereby preserving 5-FU from its rapid and extensive catabolism (Porter et al, 1992; Baccanari et al, 1993; Spector et al, 1993). […] MATERIALS AND METHODS IPRL experiments Livers from male Wistar rats (Iffa Credo, Lyon, France) were isolated and perfused with recirculation of the perfusion medium according to the design originally described by Brauer et al (1951) and modified by Sabouraud et al (1993). The recirculating perfusate (approximately 180 ml), oxygenated with oxygen- carbon dioxide (95%:5%), was a Krebs-Ringer bicarbonate buffer supplemented with glucose (1.3 mM) and bovine serum albumin (0.5%). The perfusate (pH 7.4) was recirculated at a mean flow rate of 10 ml min-1 g-' of liver. The experiments were carried out with solutions of 5-FU prepared immediately before use at a dose of 15 mg kg-' body weight.

in vitro = conditions: male, Wistar, rat, pH 7.4
Method: as §1

[5] = design: method as in Zhang et al, 1992, 1993; conditions: rats; ref Zhang et al, 1992, 1993; cited from earlier work
[6] = system: isolated perfused rabbit heart; experiment: Cardiotoxicity on the isolated perfused rabbit heart model; conditions: unpublished data
MOPC-315 s.c. tumours = system: MOPC-315 s.c. tumours; design: method as in Davis et al (1995); conditions: compared with mice treated with 5-FU alone; ref Davis et al (1995); cited from earlier work
DPD = system: DPD; design: method as in Baccanari et al (1993); conditions: 1 h or 6 h after single dose GW776 2 mg kg-1 p.o.; compared with > 96% of this study; ref Baccanari et al (1993); cited from earlier work
mouse tumour models = system: mouse tumour models; design: method as in Baccanari et al, 1993; conditions: ref Baccanari et al, 1993; cited from earlier work
dogs = system: dogs; design: method as in Davis et al (1994); conditions: 26-h continuous infusion of 5-FU at 1.6, 4 or 16 mg kg-1 24 h-1; ref Davis et al (1994); cited from earlier work
rat tumour models = system: rat tumour models; design: method as in Cao et al, 1994; conditions: ref Cao et al, 1994; cited from earlier work
[7] = Table 4, liver acid-insoluble extract
[8] = FBAL 16.6 mg kg-1 circulated 3 h without liver, after concentration
[9] = GW776 0.5 mg kg-1 1 h before 5-FU 15 mg kg-1

For `O=c1[nH]cc(F)c(=O)[nH]1` [5-FU, 5-fluorouracil], the “Chemical transformation in perfusate” value ([1]; perfusate bubbled with carbogen for 3 h at 37 C) is listed as “not chemically transformed”, the “LDH activity compared with control experiments” value [2] is listed as “no significant difference” and the “Half-life of 5-FU” value [3] is listed as “approximately 14 min”. For the same compound, the “Unmetabolized 5-FU, global recovery” value [4] was “All 5-FU was metabolized”, the “5', 2' and 3' FUMP in acid-insoluble extract” value [4, 7] was 0 Per cent of Injected dose and the “5-FU in acid-insoluble extract” value [4, 7] was 0 Per cent of Injected dose. The “5-FU in acid-soluble extract” value ([4]; Table 4, liver acid-soluble extract) was 0 Per cent of Injected dose, the “Total in acid-soluble extract” value ([4]; Table 4, liver acid-soluble extract, P<0.01) was 13 + 4 Per cent of Injected dose and 13 Per cent of Injected dose and the 5-FU in perfusate ([4]; male, Wistar, rat, pH 7.4) was 0 Per cent of Injected dose. The “Unmetabolized 5-FU” value ([4]; male, Wistar, rat, pH 7.4) was 0% of injected dose and the recovery (in vitro) was 0%.

For `NCC(F)C(=O)O` (stereo not drawn) [FBAL, alpha-fluoro-beta-alanine], the “Adduct of FBAL with a-glucose as share of all the fluorinated compounds detected” value [1, 8] was 2.4%, the “Adduct of FBAL with beta-glucose as share of all the fluorinated compounds detected” value [1, 8] was 28.3% and the “CFBAL as share of all the fluorinated compounds detected” value [1, 8] was 49.6%. For the same compound, the “F- as share of all the fluorinated compounds detected” value [1, 8] was 1.4%, the “FBAL as share of all the fluorinated compounds detected” value [1, 8] was 18.3% and the FBAL signal share ([1]; solution of FBAL in perfusion medium over 3 h) was 98.9%. The “Retention in various tissues (mainly liver, heart and brain)” value [5] was “up to 8 days”.

With `O=C(O)C(F)CO` (stereo not drawn) [FHPA, 2-fluoro-3-hydroxypropionic acid] the Cardiotoxicity ([6]; 0.01 mg kg-1 (lowest dose)) was “did not generate cardiotoxic symptoms” and the Cardiotoxicity ([6]; 1.5 mg kg-1 (highest dose)) was “highly cardiotoxic”.

For `C#Cc1c[nH]c(=O)[nH]c1=O` [GW776, 5-ethynyluracil], the “Incorporation of 5-FU into RNA in tumours” value (MOPC-315 s.c. tumours) is given as “enhanced the incorporation”, the “Inhibition of DPD activity in liver extracts” value (DPD) is given as “the same extent of inhibition” and the “Therapeutic index of 5-FU” value (mouse tumour models) is given as “increases the therapeutic index of 5-FU”. The “Protection from 5-FU-induced neurotoxicity” value (dogs) was “protected dogs from the neurotoxicity”, the “Therapeutic index of 5-FU” value (rat tumour models) was “increases the therapeutic index of 5-FU” and the “Inhibition of rat liver ability to catalyse 5-FU degradation” value ([4]; GW776 0.5 mg kg-1 1 h before 5-FU) was over 96%. The “Decrease in FBAL formation” value [4, 9] was “approximately 110 factor”, the “Decrease in fluoride ion formation” value [4, 9] was “approximately 10 factor” and the “Decrease of the amount of 5-FU catabolites in the presence of GW776” value [4, 9] was 27 factor. The “Increase of 5-FU anabolites” value [4, 9] was “approximately 7 factor”.
